# Test results as given in patent publication US8993527B2, “Methods, compositions, and formulations for preventing or reducing adverse effects in a patient” (Pericor Therapeutics, Inc., priority 2005, dated 2015).
# How the values were obtained:
# [1] = system: patients undergoing coronary artery bypass surgery; assay: Aspirin within 48 hours of revascularization: prospective study of CABG patients; format: in vivo
# Description: A prospective, longitudinal study enrolled 5,436 patients. Eligible patients included those with medically-refractory coronary artery disease and scheduled for coronary artery bypass surgery at 70 medical institutions among 17 countries in North and South America, Europe, the Middle East and Asia. At each institution, 100 patients were to be prospectively enrolled according to a systematic sampling scheme that allowed a random sampling of patients at each institution among all patients undergoing surgery at that institution.
# Of the 5,436 patients enrolled, 5,065 patients completed the study and were included in the final analysis. Of the 371 patients excluded, 32 were excluded due to patient withdrawal, 2 due to death prior to surgery, 97 due to cancellation or rescheduling of surgery, 132 patients due to change in procedure, 11 due to inadvertent enrollment in another study, 86 due to incomplete data and 11 due to incomplete blood sampling, shipping or storage.
# Aspirin was administered in doses of 160 mg to 650 mg to 3,001 patients within 48 hours of revascularization. All potential side-effects associated with aspirin use were recorded daily by blinded investigators. Independent investigators coded all medications received-including pro- and anti-thrombotic and pro- and anti-coagulant medications, and blood products—by day throughout hospitalization, as well as at admission and at discharge, or until death.
# For each enrolled patient, approximately 7,500 fields of data were collected throughout the patient's index hospitalization, from admission until discharge, by independent investigators; treated physicians were blinded to all research data. Data included demographic, historical, clinical, laboratory, eloectrocardiographic, specialized testing, resource utilization, and adverse outcomes. Following last patient enrollment, all data fields for each patient were queried centrally for completeness and accuracy, with all changes documented prior to database closure.
# All outcomes were prespecified, defined by protocol, and discerned by investigators blinded to treatment group. Fatal and non-fatal outcomes were classified as cardiac (myocardial infarction, congestive heart failure and cardiac death), cerebral (stroke, encephalopathy and cerebral death), renal (dysfunction, failure and renal death), gastrointestinal (ischemia, infarction and GI death), or other (such as infectious, pulmonary). The diagnosis of myocardial infarction required either: the development of new Q waves (as defined by Minnesota Code 1-1-1I or 1I-2-7); or new persistent S T-segment or T-wave changes (Minnesota Code 4-1, 4-2, 5-1 or 5-2) associated with an elevation of CK-MB isoenzyme values; or autopsy evidence of acute myocardial infarction. The diagnosis of heart failure required either: the use of a ventricular assist device; or the use of continuous inotropic support for at least 24 hours; or autopsy evidence of heart failure. Cerebral outcomes were classified as: clinically diagnosed stroke or encephalopathy; or CT, MRI or autopsy evidence of a focal or global defect. Renal dysfunction was defined as: a serum creatinine ≧177 μmol/L accompanied by a ≧62 μmol/L rise over baseline; and renal failure was defined as dysfunction requiring dialysis, or autopsy evidence of renal failure. Gastrointestinal ischemia was defined as abdominal pain diagnosed as intestinal ischemia, or detected at exploration; infarction required bowel resection, or autopsy evidence of intestinal infarction.
# The risk of death for aspirin taking versus control populations were compared using the Chi-Square test. Individual ischemic outcomes involving the heart, brain, kidney and gastrointestinal tract, and combined ischemic outcomes were compared using Fisher's Exact Test or the Chi-Square test as appropriate. Odds ratios and the 95% confidence intervals are presented with associated P values. […]
# [2] = system: longitudinal muscle from the guinea pig ileum; assay: Inhibition of stimulated contraction in isolated ileum; settings: electrically stimulated guinea pig ileum muscle
# Description: These are detailed in Table II.
# [3] = system: coronary endothelial cells; assay: Inhibition of adenosine utilization in cell culture; format: cell-based; settings: 1 μM [3H] adenosine, 15 minutes; for inhibition at 5 µM / inhibition at 50 µM: Endothelial cell
# Experimental: In this assay, endothelial cells were incubated with 5 μM or 50 μM of the test compound together with 1 μM [^3H] adenosine for 15 minutes. Inhibition of adenosine utilization was determined by measuring the concentration of extracellular adenosine by scintillation counting following separation by thin layer chromatography (TLC).
# [4] = target: T1, NBTI-specific adenosine transport site (UniProt O54698); assay: [3H]-NBTI binding assay; settings: read-out: ED50 (50% displacement of bound [3H]-NBTI); 0.5 mg neuronal membrane protein, 0.5 nM [3H]-NBTI, 30 minutes
# T1 sequence (O54698 1-457): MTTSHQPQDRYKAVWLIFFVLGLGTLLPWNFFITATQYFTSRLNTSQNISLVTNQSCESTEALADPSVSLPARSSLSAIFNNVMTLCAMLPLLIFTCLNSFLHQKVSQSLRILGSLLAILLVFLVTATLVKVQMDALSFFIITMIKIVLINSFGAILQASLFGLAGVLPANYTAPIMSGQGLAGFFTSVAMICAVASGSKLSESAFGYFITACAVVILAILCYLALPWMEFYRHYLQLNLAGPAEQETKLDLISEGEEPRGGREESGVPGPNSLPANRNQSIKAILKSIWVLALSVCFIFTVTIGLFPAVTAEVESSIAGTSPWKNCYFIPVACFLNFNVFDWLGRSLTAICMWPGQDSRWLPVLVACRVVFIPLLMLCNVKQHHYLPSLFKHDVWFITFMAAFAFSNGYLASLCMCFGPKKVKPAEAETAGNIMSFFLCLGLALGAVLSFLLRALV
# Experimental: Increasing concentrations of the test compounds were incubated for 30 minutes with 0.5 mg neuronal membrane protein together with 0.5 nM [^3 H]-NBTI in a Tris buffer (pH 7.4) at room temperature. The assays were quenched and membranes collected by rapid filtration. Filters were then solubilized and radioactivity determined by scintillation counting.
# [5] = system: platelet aggregation in human whole blood; assay: Inhibition of platelet aggregation in human whole blood; format: cell-based; settings: 10 minutes at 37° C., 10 µM adenosine added, ADP (6-25 μM)
# Experimental: Whole blood was drawn from healthy donors and collected in 0.1 vol. of sodium citrate to prevent coagulation. Platelet aggregation was measured by the impedance technique using a Whole Blood Aggregometer. The test compounds were incubated in whole blood for 10 minutes at 37° C. and 10 µM adenosine was added 5 minutes before eliciting aggregation. Aggregation was induced by addition of ADP (6-25 μM) at the minimum concentration inducing full aggregation in untreated controls.
Structure (SMILES),IC50 ([2]; Cavia porcellus),inhibition at 5 µM ([3]; 5 μM),inhibition at 50 µM ([3]; 50 μM),EC50 [4],"IC50 ([5]; Homo sapiens, Platelet, 10 min)",further results
CC(=O)Oc1ccccc1C(=O)O [Aspirin],–,–,–,–,–,"Odds Ratio for mortality (multivariate) ([1]; Aspirin use (admission)): 1.46; Odds Ratio for mortality (multivariate) ([1]; Aspirin use (prior to surgery)): 0.77; Odds Ratio for mortality (multivariate) ([1]; Aspirin use following revascularization): 0.27; Odds Ratio for mortality (multivariate) ([1]; Discontinuation of aspirin use): 1.04; Length of hospitalization ([1]; aspirin group, 11.32±9.44 without): 9.57±7.14; patients who died within 12 hours of surgery ([1]; aspirin group, 25 patients in the control group): none; patients who died within 48 hours of surgery ([1]; aspirin group, 42 patients in the control group): one; risk of dying during hospitalization ([1]; aspirin within 48 hours of revascularization, 5.9% without): 1.4%; non-fatal ischemic complications (heart, brain, kidney or gastrointestinal tract) ([1]; aspirin within 48 hours of revascularization, 24.5% without): 13.6%; reduction in mortality ([1]; first use of aspirin 48 hours after surgery, not significant (P=0.534)): 15%"
"CC(=O)OC[C@H]1O[C@@H](c2nc(C(N)=O)c(N)[nH]2)[C@H](OC(C)=O)[C@@H]1OC(C)=O [Compound No. 2 (1-111), 5-Amino-(2,3,5-tri-O-acetyl-beta-D-ribofuranosyl)imidazole-4-carboxamide]",–,–,–,–,–,melting point: 128 to 129 °C
"Nc1c(C(=O)NCc2ccc([N+](=O)[O-])cc2)ncn1C1OC(CO)C(O)C1O [Compound No. 23 (1-343), 5-Amino-1-β-D-ribofuranosyl-imidazole-4-N-[(4-nitrophenyl)methyl]carboxamide]",3 µM,27 ± 4%,63 ± 2%,3 µM,38 µM,–
"Nc1c(C(=O)NCc2ccc(Cl)cc2Cl)ncn1C1OC(CO)C(O)C1O [Compound No. 25 (1-360), 5-amino-1-β-D-ribofuranosylimidazole-4-N-[(2,4-dichlorophenyl)methyl]carboxamide]",20 µM,21 ± 1%,56 ± 2%,72 µM,–,–
"Nc1c(C(=O)NCc2cccc([N+](=O)[O-])c2)ncn1C1OC(CO)C(O)C1O [Compound No. 28 (1-348), 5-amino-1-β-D-ribofuranosylimidazole-4-N-[(3-nitrophenyl)methyl]carboxamide]",–,17 ± 3%,47 ± 2%,15 µM,180 µM,–
"Nc1c(C(=O)NCc2ccc(Cl)cc2)ncn1C1OC(CO)C(O)C1O [Compound No. 29 (1-349), 5-amino-1-β-D-ribofuranosylimidazole-4-N-[(4-Chlorophenyl)methyl]carboxamide]",60 µM,41 ± 11%,67 ± 8%,100 µM,90 µM,–
"Cc1ccc(CNC(=O)c2ncn(C3OC(CO)C(O)C3O)c2N)cc1 [Compound No. 30 (1-388), 5-amino-1-β-D-ribofuranosylimidazole-4-N-[(4-methylphenyl)methyl]carboxamide]",20 µM,21 ± 1%,49 ± 4%,225 µM,–,–
"COc1ccc(CNC(=O)c2ncn(C3OC(CO)C(O)C3O)c2N)cc1 [Compound No. 39 (1-390), 5-Amino-1-β-D-ribofuranosyl-imidazole-4-N-[p-methoxybenzyl]carboxamide]",500 µM,7 ± 4%,29 ± 1%,600 µM,–,–
"NC(=O)c1nc(Sc2ccccc2)n([C@@H]2O[C@H](CO)[C@@H](O)[C@H]2O)c1N [Compound No. 43 (1-432), 5-Amino-2-thiophenyl-1-β-D-ribofuranosylimidazole-4-carboxamide]",–,–,–,71 µM,–,IC50 [2]: 200 µM; IC50 [5]: 620 µM
"Nc1c(C(=O)NC2CC3CCC2C3)ncn1C1OC(CO)C(O)C1O [Compound No. 45 (1-438), 5-Amino-1-β-D-ribofuranosylimidazole-4-N-(2-endo-norbornyl)carboxamide]",100 µM,–,–,90 µM,–,–
[N-]=[N+]=NCC1OC(n2cnc(C(=O)NCc3ccc(Cl)cc3)c2N)C(O)C1O (centres unmarked) [Compound No. 52 (1-467)],–,–,–,–,480 µM,–
"Nc1c(C(=O)Nc2ccc(Br)cc2)ncn1C1OC(CO)C(O)C1O [Compound No. 55 (1-484), 5-Amino-1-β-D-ribofuranosylimidazole-4-N-(4-bromophenyl)carboxamide]",–,–,–,60 µM,–,melting point: 214 to 216 °C (dec.)
"Nc1c(C(=O)NCc2ccc(Br)cc2)ncn1C1OC(CO)C(O)C1O [Compound No. 56 (1-487), 5-Amino 1-β-D-ribofuranosyl-imidazole-4-N-[(4-bromophenyl)methyl]carboxamide]",–,55 ± 7%,65 ± 9%,32 µM,75 µM,–
"Nc1c(C(=O)Nc2ccc(I)cc2)ncn1C1OC(CO)C(O)C1O [Compound No. 57 (1-488), 5-Amino-1-β-D-ribofuranosyl-imidazole-4-N-(4-iodophenyl) carboxamide]",–,–,–,80 µM,–,melting point: 227 to 229 °C
"Nc1c(C(=O)NCCc2ccc([N+](=O)[O-])cc2)ncn1C1OC(CO)C(O)C1O [Compound No. 59 (1-506), 5-Amino-1-β-D-ribofuranosyl-imidazole-4-N→2-(4-nitrophenyl)ethyl carboxamide]",–,–,–,2 µM,70 µM,–
"C[C@H]1O[C@@H](n2cnc(C(=O)NCc3ccc(Cl)cc3)c2N)[C@H](O)[C@@H]1O [Compound No. 61 (1-509), 5-Amino-1-(5-deoxy-β-D-ribofuranosyl)imidazole-4N-[(4-chlorophenyl)methyl]carboxamide]",–,–,–,32 µM,–,Inhibition of Adenosine Utilization (%) ([3]; 5 μM): 37 ± 28%; Inhibition of Adenosine Utilization (%) ([3]; 50 μM): 72 ± 5%; IC50 [5]: 171 µM
[N-]=[N+]=NC[C@H]1O[C@@H](n2cnc(C(=O)NCc3ccc([N+](=O)[O-])cc3)c2N)[C@H](O)[C@@H]1O [Compound No. 71 (1-562)],–,–,–,–,–,Inhibition of Adenosine Utilization (%) ([3]; 5 μM): 10 ± 3%; Inhibition of Adenosine Utilization (%) ([3]; 50 μM): 31 ± 11%; IC50 [5]: 40 µM
NC[C@H]1O[C@@H](n2cnc(C(=O)NCc3ccc([N+](=O)[O-])cc3)c2N)[C@H](O)[C@@H]1O [Compound No. 72 (1-563)],–,–,–,–,–,IC50 [5]: 300 µM
CC(=O)CC(c1ccccc1)c1c(O)c2ccccc2oc1=O (centres unmarked) [Warfarin/coumadin],–,–,–,–,–,Odds Ratio for mortality (multivariate) ([1]; Warfarin/coumadin over the week prior to revascularization): 2.00
